From ChEMBL document CHEMBL1201862, “PubChem BioAssay data set” (2004)
Calls of active or inactive are those of the source.

Legend:
Major prion protein = Major prion protein (Homo sapiens, UniProt P04156); format: functional, cell-based
[1] = non-specific 3'UTR reporter inhibition in Clone20-Shn3RL – cell-based, Renilla luciferase, cherry-picked, counter-screen for Shn3 inhibitor project, dose response (AID 624133); format: functional
[2] = reduction of Shn3 3'UTR-driven luciferase in osteoblasts – cell-based, Clone20 osteoblasts, firefly luciferase, cherry-picked, dose response (AID 624132); format: functional;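 note: firefly luciferase luminescence from reporter carrying the Shn3 3'UTR in osteoblasts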
[3] = molecular target: T1, Histone-lysine N-methyltransferase NSD2 (Homo sapiens, UniProt O96028); format: biochemical
T1 sequence (O96028 whole entry): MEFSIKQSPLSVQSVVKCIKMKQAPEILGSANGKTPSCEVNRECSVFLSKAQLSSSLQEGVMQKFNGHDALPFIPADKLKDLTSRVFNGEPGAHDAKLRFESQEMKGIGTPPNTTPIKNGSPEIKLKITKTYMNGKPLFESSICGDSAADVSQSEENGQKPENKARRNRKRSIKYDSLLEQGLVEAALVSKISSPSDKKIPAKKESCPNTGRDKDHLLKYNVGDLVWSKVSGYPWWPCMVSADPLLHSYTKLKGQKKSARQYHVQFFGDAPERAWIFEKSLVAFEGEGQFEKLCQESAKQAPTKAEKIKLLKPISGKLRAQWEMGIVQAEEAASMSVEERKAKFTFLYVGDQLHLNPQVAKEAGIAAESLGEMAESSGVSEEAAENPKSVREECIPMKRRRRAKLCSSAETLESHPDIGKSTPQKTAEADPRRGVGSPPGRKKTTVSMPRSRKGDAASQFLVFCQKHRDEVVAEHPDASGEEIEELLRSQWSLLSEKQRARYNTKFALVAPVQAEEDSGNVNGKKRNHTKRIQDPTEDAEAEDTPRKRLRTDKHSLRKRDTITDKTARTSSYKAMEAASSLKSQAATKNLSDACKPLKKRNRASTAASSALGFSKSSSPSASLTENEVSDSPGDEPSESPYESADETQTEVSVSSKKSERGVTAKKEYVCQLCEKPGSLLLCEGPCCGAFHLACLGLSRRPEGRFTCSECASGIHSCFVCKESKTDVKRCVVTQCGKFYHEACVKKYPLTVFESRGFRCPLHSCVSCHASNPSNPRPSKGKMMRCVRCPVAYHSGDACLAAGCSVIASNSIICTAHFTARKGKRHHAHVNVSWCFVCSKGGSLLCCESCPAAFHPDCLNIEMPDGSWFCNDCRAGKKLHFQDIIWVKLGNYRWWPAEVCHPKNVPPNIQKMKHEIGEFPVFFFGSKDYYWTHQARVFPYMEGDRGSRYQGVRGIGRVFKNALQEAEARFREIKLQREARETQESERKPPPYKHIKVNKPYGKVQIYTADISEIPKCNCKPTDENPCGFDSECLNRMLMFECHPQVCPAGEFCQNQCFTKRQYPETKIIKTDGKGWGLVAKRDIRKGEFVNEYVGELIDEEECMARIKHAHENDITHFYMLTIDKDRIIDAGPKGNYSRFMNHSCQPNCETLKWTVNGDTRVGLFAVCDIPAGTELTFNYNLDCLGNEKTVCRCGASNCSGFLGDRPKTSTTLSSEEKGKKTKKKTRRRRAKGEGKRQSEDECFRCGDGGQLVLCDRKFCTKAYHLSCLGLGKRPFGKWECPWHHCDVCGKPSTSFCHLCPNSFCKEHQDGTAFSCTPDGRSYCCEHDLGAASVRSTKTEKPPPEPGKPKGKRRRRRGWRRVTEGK

Paired box protein Pax-8 = Paired box protein Pax-8 (Homo sapiens, UniProt Q06710); assay: PAX8 transcriptional activity inhibition in RMG-I – RMG-I cells, luciferase, cherry-pick, dose response (AID 687027); format: functional, cell-based;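 note: luciferase reporter driven by Pax8 target thyroperoxidase promoter measured by SteadyGlo luminescence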
[4] = loss of viability in HepG2 cells – cell-based, CellTiter-Glo, cherry-picked, cytotoxicity control for Shn3 inhibitor project, dose response (AID 624134); format: functional
[5] = molecular target: T2, Rac GTPase-activating protein 1 (Homo sapiens, UniProt Q9H0H5); assay: blockers of MgcRacGAP-driven Rac1 GTP hydrolysis – biochemical, ADP Hunter fluorescence, primary and confirmatory, confirmation (AID 624330); format: functional
T2 sequence (Q9H0H5 whole entry): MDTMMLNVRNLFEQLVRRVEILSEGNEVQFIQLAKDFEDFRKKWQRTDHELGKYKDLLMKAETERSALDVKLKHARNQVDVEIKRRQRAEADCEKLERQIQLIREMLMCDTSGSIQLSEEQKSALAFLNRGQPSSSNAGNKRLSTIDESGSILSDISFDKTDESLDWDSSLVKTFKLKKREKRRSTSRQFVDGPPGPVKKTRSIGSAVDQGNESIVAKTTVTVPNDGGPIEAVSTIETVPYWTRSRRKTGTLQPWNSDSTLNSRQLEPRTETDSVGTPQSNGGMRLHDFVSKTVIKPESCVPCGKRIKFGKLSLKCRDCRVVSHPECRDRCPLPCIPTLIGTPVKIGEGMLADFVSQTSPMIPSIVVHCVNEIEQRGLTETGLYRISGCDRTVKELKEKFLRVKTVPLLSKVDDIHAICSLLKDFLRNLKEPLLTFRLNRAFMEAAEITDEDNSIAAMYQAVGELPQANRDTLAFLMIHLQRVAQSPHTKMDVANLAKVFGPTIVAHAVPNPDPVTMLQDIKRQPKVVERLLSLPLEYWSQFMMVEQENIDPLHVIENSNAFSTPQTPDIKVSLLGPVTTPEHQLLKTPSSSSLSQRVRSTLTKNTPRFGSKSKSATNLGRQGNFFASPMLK

[6] = viability loss in HeLa cells – cytotoxicity control for MgcRacGAP inhibitor project, dose response (AID 624300); format: functional
[7] = molecular target: T3, COUP transcription factor 2 (Homo sapiens, UniProt P24468); assay: Luminescence-based cell-based high throughput dose response assay to identify inhibitors of COUP-TFII (NR2F2).; format: functional;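 note: HEK293 cells transiently cotransfected with COUP-TFII expression vector and reporter; luciferase reporter luminescence driven by COUP-TFII from the pX2-168 reporter plasmid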
T3 sequence (P24468 whole entry): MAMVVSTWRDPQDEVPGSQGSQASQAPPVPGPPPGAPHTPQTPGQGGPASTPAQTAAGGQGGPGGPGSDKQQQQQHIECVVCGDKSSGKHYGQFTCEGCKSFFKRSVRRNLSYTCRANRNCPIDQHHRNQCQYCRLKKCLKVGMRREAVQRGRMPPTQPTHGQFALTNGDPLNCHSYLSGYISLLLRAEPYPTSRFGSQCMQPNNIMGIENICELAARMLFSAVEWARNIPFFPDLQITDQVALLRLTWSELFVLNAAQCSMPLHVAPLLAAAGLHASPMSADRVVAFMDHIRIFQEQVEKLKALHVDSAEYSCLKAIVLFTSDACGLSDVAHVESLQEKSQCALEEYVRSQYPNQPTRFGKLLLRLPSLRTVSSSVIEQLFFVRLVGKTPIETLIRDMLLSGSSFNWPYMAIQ

[8] = molecular target: T4, Heat shock factor protein 1 (Mus musculus, UniProt P38532); assay: decrease of HSF1-responsive luciferase luminescence – cell-based, NIH3T3, dose retest, confirmation (AID 2382); format: functional;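 note: NIH3T3 fibroblasts with HSF1-driven luciferase reporter stressed by proteasome inhibitor MG132; luminescence from HSF1-driven luciferase expression after 8 hours of MG132 stress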
T4 sequence (P38532 whole entry): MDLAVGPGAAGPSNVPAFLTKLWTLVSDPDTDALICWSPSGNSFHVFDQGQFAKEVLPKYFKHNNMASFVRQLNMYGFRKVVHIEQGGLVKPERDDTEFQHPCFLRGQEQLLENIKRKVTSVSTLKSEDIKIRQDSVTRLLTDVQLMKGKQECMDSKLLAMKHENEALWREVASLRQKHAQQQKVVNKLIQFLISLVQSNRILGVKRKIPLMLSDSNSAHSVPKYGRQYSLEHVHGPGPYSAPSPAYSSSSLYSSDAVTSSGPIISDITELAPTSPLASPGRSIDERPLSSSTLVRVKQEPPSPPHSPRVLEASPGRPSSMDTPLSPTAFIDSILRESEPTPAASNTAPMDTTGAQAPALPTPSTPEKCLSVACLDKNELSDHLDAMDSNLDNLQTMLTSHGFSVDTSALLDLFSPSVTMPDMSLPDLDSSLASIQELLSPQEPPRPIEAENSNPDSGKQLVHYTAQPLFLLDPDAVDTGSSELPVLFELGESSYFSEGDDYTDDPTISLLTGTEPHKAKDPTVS

[9] = OVCAR-3 cell viability loss – plate reader, dry powder samples, PAX8 inhibitor project, dose response (AID 743044); format: functional, cell-based
[10] = OVCAR8 cell viability loss – plate reader, dry powder samples, PAX8 project, dose response (AID 743197); format: functional, cell-based; conditions: OVCAR-8
Genome polyprotein = Genome polyprotein (dengue virus type 2, UniProt P29990); assay: flavivirus cap methylation enzyme inhibition – biochemical, confirmation dose response, primary screen (AID 588689); format: functional
[11] = general cell-killing toxicity readout – plate reader, dry powder samples, cytotoxicity control for PAX8 inhibitor project, dose response (AID 743021); format: functional, cell-based
Caspase-6 = molecular target: T5, Caspase-6 (Homo sapiens, UniProt P55212); assay: inhibition of CASP6 peptide cleavage – biochemical, VEID-R110 fluorescence, cherry-pick, dose response (AID 720632)
T5 sequence (P55212 whole entry): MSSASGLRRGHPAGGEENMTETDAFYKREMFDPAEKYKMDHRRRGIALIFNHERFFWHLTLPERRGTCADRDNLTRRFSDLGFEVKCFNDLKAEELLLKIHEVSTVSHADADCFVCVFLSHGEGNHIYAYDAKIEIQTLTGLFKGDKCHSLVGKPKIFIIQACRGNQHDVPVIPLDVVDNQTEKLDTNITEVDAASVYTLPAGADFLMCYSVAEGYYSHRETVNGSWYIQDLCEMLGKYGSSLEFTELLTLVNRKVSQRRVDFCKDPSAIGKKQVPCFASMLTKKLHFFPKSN

[12] = reduced cellular PGC1a acetyl-lysine signal – cell-based, cherry-picked samples, dose response (AID 720514); format: functional;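 note: potency may reflect raised or lowered acetylation signal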
[13] = toxicity to human hepatoma HepG2 cells – cell-based, cherry-picked samples, cytotoxicity control, dose response (AID 1159577); format: functional
[14] = P. falciparum Dd2 growth inhibitors, dose response, SYBR Green, cherry-picked samples (AID 1159567); format: functional, cell-based
Cytochrome P450 2D6 = Cytochrome P450 2D6 (Homo sapiens, UniProt P10635);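 note: CYP2D6 member of a cytochrome P450 panel assay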
[15] = viability loss in Vero cells – cytotoxicity control for Vif-APOBEC3G degradation inhibitor project, dose response (AID 1117358); format: functional; conditions: Vero
INS1 = assay: INS-1E survival protection against cytokine death – cell-based, luminescence, retest, dose response (AID 449756); format: functional; conditions: Rattus norvegicus;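 note: cell death triggered by IL-1 beta plus TNF-alpha plus IFN-gamma mixture; protective hits raise ATP signal compared with cytokine alone wells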
Protein Wnt-3a = Protein Wnt-3a (Mus musculus, UniProt P27467); assay: antagonism of Wnt3a pathway luciferase reporter – Wnt-LIGHT cells, luminescence, selectivity assay for Gli-SUFU antagonist project, dose response (AID 651570); format: functional; conditions: read-out: IC50_Mean;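 note: Wnt-LIGHT reporter cells stimulated with conditioned medium from Wnt3a-producing cells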

O=C(COC(=O)CSc1ccc2ccccc2c1Br)NC1CC1
IC50 (cells): > 138 µM (inactive) | IC50 (Major prion protein): 4.72 µM (active)

CCN(CC)CC(C)(C)C(=O)/C=C/c1ccc(/C=C/C(=O)C(C)(C)CN(CC)CC)cc1
AC50 [1]: 1.78 µM (active) | AC50 [2]: 0.468 µM (active) | AC50 [3]: > 20 µM (inactive) | AC50 (Paired box protein Pax-8): 2.2 µM (active) | AC50 [4]: 5.07 µM (active) | IC50 [5]: 158 µM (active) | CC50 [6]: 65.5 µM (active)

CC(C)(C)c1ccc(-c2nnc3sc(-c4ccccn4)nn23)cc1
IC50 [7]: > 85.4 µM (inactive) | EC50 [8]: 0.871 µM (active)

O=C(Nc1ccc(C(F)(F)F)cc1)Nc1ccc2c(c1)[C@H]1C[C@@H](CC(=O)N3CCc4ccccc4C3)O[C@H](CO)[C@H]1O2
AC50 (Paired box protein Pax-8): 4.1 µM (active) | AC50 [9]: 23.6 µM (active) | AC50 [10]: 54 µM (active)

CC1=C/C(=C(\c2cc(C)c(O)c(Br)c2)c2ccccc2S(=O)(=O)O)C=C(Br)C1=O
AC50 [3]: 14.6 µM (active) | IC50 [5]: 79.4 µM (active) | IC50 (Genome polyprotein): 53.2 µM (active) | CC50 [6]: 100 µM (active)

CCOCCCN=C(S)N1CCN(c2nc(-c3ccc(F)cc3)cs2)CC1
IC50 [7]: 8.63 µM (active)

Cc1cc(=O)n2c3c(c4c(cc13)c(CN(C)C)cc(=O)n4C)OC2
AC50 (Paired box protein Pax-8): 16.8 µM (active) | AC50 [11]: 50 µM (active) | AC50 (Caspase-6): 4.06 µM (active)

CCC(OC(=O)c1ccc(S(C)(=O)=O)c([N+](=O)[O-])c1)C(=O)NC1C2CC3CC(C2)CC1C3 (stereo not drawn)
AC50 [1]: 4.49 µM (active) | AC50 [2]: 1.66 µM (active) | AC50 (Paired box protein Pax-8): 8.07 µM (active) | AC50 [11]: 31.1 µM (active) | AC50 [4]: 7.27 µM (active)

OC[C@H]1[C@@H](c2ccc(C#CC3CCCC3)cc2)[C@@H]2CN(CCC(F)(F)F)CCCCN12
AC50 [12]: 11 µM (active) | AC50 [13]: 10.5 µM (active) | AC50 [14]: 0.346 µM (active)

O=C(CNC(=O)/C(=C\c1ccccc1)NC(=O)c1ccc(Br)cc1)OCc1ccccc1
AC50 (Cytochrome P450 2D6): 14.1 µM (inconclusive) | CC50 [15]: > 40 µM (active)

CCc1ccc(CN(C)C(=O)c2cc(COc3cccc4cnccc34)on2)cc1
AC50 [1]: 13.5 µM (active) | AC50 [2]: 1.92 µM (active) | AC50 (INS1): 3.27 µM (active) | AC50 [4]: 3.23 µM (active) | IC50 [7]: 7.5 µM (active) | IC50 (Protein Wnt-3a): 4.25 µM (active)

CN(C)C(=O)c1ccc(COc2ccccc2Br)o1
CC50 [15]: > 40 µM (active)

Cn1c(=S)sc2ccc3ccccc3c21
IC50 (cells): 138 µM (inactive) | IC50 (Major prion protein): 6.25 µM (active)

Cc1cc2cccc(C)c2nc1SCC(=O)NNC(=O)c1ccco1
IC50 (cells): > 138 µM (inactive) | IC50 (Major prion protein): 7.04 µM (active)
